Data on ten molecules can be found in patent US7795220B2, “Conformationally constrained parathyroid hormones with alpha-helix stabilizers” (The General Hospital Corporation, priority 2003, dated 2010).

Assay [1] deals with P1R (recombinant P1R chimera) in HKRK-B28 cells. Nature of the assay: cAMP stimulation in HKRK-B28 cells. Format: cell-based, opposum/rat chimera. To be noted: for cAMP-stimulating potency higher than that of parent [M]PTH(1-14): relative to parent [M]PTH(1-14); for cAMP agonist activity at single high concentration (in words): peptide at 10^−4M. An excerpt:
(§1) Cell Culture. The cell line HKRK-B28 (Takasu, H., et al., J. Bone Miner. Res. 14:11-20 (1999)) was derived from the porcine kidney cell line, LLC-PK1 by stable transfection with plasmid DNA encoding a recombinant P1R chimera comprised of the opposum P1R from the N-terminus to the mid region of TM3 and the rat P1R from the mid region of TM3 to the C-terminus. The surface density of the P1R in these cells is ˜280,000 receptors per cell. The clonal cell line LdelNt-2 was derived from LLC-PK, cells via stable transfection with a plasmid encoding P1R-delNt, a recombinant human PTH-1 receptor construct in which most of the amino-terminal extracellular domain is deleted. These cells, as well as COS-7 cells and SaOS-2-B10 cells, were cultured at […] in T-75 flasks ([…]) in Dulbecco's modified Eagle's medium (DMEM) supplemented with fetal bovine serum (10%), penicillin G (20 units/ml), streptomycin sulfate (20 μg/ml) and amphotericin B (0.05 μg/ml) in a humidified atmosphere containing 5% CO2. Stock solutions of EGTA/trypsin and antibiotics were from GLBCO; fetal bovine serum was from Hyclone Laboratories (Logan, Utah). COS-7 cells sub-cultured in 24-well plates were transfected with plasmid DNA (200 ng per well) encoding the wild-type human P1R or truncated human P1R deleted for residues (24-181) (Shimizu, M., et al., J. Biol. Chem. 275:21836-21843 (2000)) that was purified by cesium chloride/ethidium bromide density gradient centrifugation, and FuGENE 6 transfection reagent (Roche Indianapolis Ind.) according to the manufacturer's recommended procedure. All cells, in 24-well plates, were treated with fresh media and shifted to 33° C. for 12 to 24 h prior to assay.
cAMP Stimulation. Stimulation of cells with peptide analogs was performed in 24-well plates. Cells were rinsed with 0.5 mL of binding buffer (50 mM Tris-HCl, 100 mM NaCl, 5 mM KCl, 2 mM CaCl2, 5% heat-inactivated horse serum, 0.5% fetal bovine serum, adjusted to pH 7.5 with HCl) and treated with 200 μL of cAMP assay buffer (Delbecco's modified Eagle's medium containing 2 mM 3-isobutyl-1-methylxanthine, 1 mg/mL bovine serum albumin, 35 mM Hepes-NaOH, pH 7.4) and 100 μL of binding buffer containing varying amounts of peptide analog (final volume=300 μL). The medium was removed after incubation for 30 to 60 minutes at room temperature, and the cells were frozen on dry ice, lysed with 0.5 mL 50 mM HCl, and refrozen ([…]). The cAMP content of the diluted lysate was determined by radioimmunoassay. The EC50 response values were calculated using nonlinear regression (see below).
Data Calculation. Calculations were performed using Microsoft® Excel. Nonlinear regression analyses of binding and cAMP dose-response data were performed using the four-parameter equation: yp=Min+[(Max−Min)/(1+(IC50/x)^slope)]. The Excel Solver function was utilized for parameter optimization, as described previously (Carter, P. H., et al., Endocrinology 140: 4972-4981 (1999); Bowen, W. P., and Jerman, J. C., Trends in Pharmacol. Sci. 16: 413-417 (1995)). Differences between paired data sets were statistically evaluated using a one-tailed Student's t-test, assuming unequal variances for the two sets.

In assay [2] the target is T1, P1R (recombinant P1R chimera) in HKRK-B28 cells (UniProt P25107+P25961, A364S/A509S/A517P/A524T/DEL519-521/E344G/G506A/H528S/I365V/I416T/I429T/K402R/K465R/L320I/M408V/N352H/S511P/S523T/T335G/T421L/T487S/V367L/V433I).
T1 construct: the opposum P1R from the N-terminus to the mid region of TM3; the rat P1R from the mid region of TM3 to the C-terminus; expressed in transfected cells
The assay is described as follows: biochemical. It counts as binding, opposum/rat chimera. Conditions: for inhibition of tracer radioligand binding: concentrations as high as 1×10^−4M, HKRK-B28 cells; for IC50: apparent binding affinity (IC50), inhibition of 125I-rPTH(1-21) analog tracer binding, B28 cells.
From the text: as §1
Competition Binding. Binding reactions were performed with HKRK-B28 cells or in COS-7 cells in 24-well plates. The cells were rinsed with 0.5 mL of binding buffer, and then treated successively with 100 μL binding buffer, 100 μL of binding buffer containing various amounts of unlabeled competitor ligand, and 100 μL of binding buffer containing ca. 100,000 cpm of ^125I-[Aib^1,3,Nle^8,Gln^10,Har^11,Ala^12,Trp^14,Arg^19,Tyr^21]rPTH(1-21) (SEQ. ID. NO. 36) (ca. 26 fmol; final volume=300 μL). Incubations were 4 to 6 h at 4° C., at which time near equilibrium conditions were attained. Cells were then placed on ice, the binding medium was removed, and the monolayer was rinsed three times with 0.5 mL of cold binding buffer. The cells were subsequently lysed with 0.5 mL 5N NaOH and counted for radioactivity. For each tracer and in each experiment, the non-specific binding was determined as the radioactivity that bound in the presence of the same unlabeled peptide at a concentration of 1 μM, and was ˜1% of total radioactivity added for each tracer. The maximum specific binding (B0) was the total radioactivity bound in the absence of competing ligand, corrected for nonspecific binding, and for each tracer, ranged from 8% to 20% of the total radioactivity added. Nonlinear regression was used to calculate binding IC50 values (see below). Scatchard transformations of homologous competition binding data derived from studies with 26 fmol of ^125I-[Aib^1,3,Nle^8,Gln^10,Har^11,Ala^12,Trp^14, Arg^19,Tyr^21]rPTH(1-21) (SEQ. ID. NO. 36) were employed for estimations of apparent equilibrium dissociation constant (kDapps) and total number of ligand binding sites (Bmax), assuming a single class of binding sites and equal affinities of the iodinated and non iodinated ligand.
Data Calculation. Calculations were performed using Microsoft® Excel. Nonlinear regression analyses of binding and cAMP dose-response data were performed using the four-parameter equation: yp=Min+[(Max−Min)/(1+(IC50/x)^slope)]. The Excel Solver function was utilized for parameter optimization, as described previously (Carter, P. H., et al., Endocrinology 140: 4972-4981 (1999); Bowen, W. P., and Jerman, J. C., Trends in Pharmacol. Sci. 16: 413-417 (1995)). […]

Setting [3] is: HKRK-B28 cells, peptide at 1×10^−4M.

Values joined by “and” are separate entries in the source; they are usually repeats but may differ in a detail not shown here. Equal values may be shown once. Read-outs that look alike come from different tables or passages of the source. Non-standard residues stand in square brackets, D forms with d. Residues, ends and D or L forms follow the SMILES beside them. No end group written: not given here. hArg = N=C(N)NCCCC[C@H](N)C(=O)O; Ac5c = NC1(C(=O)O)CCCC1; Ac3c = NC1(C(=O)O)CC1; Aib = CC(C)(N)C(=O)O Some results are limits rather than exact numbers.

T1 sequence (P25107+P25961 fused with the stated changes): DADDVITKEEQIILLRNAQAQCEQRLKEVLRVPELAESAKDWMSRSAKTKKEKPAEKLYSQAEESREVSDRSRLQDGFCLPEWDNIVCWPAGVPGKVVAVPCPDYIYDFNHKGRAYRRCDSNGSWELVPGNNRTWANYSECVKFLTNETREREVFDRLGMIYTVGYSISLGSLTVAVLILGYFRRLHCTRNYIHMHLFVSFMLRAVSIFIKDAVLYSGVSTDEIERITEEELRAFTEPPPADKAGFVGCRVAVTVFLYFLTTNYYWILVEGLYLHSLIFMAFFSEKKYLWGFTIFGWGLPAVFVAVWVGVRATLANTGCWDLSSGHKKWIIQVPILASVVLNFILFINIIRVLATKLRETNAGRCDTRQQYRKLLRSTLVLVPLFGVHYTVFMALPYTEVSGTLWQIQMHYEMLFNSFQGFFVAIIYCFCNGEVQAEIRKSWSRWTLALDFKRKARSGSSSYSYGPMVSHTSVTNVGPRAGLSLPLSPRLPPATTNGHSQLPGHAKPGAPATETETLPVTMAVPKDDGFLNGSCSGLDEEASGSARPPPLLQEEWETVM

Take `CC[C@H](C)[C@H](NC(=O)[C@H](CCC(=O)O)NC(=O)[C@H](C)NC(=O)[C@@H](NC(=O)[C@H](C)N)C(C)C)C(=O)N[C@@H](CCC(N)=O)C(=O)N[C@@H](CC(C)C)C(=O)N[C@@H](CCSC)C(=O)N[C@@H](Cc1c[nH]cn1)C(=O)N[C@@H](CCC(N)=O)C(=O)N[C@@H](CCCCNC(=N)N)C(=O)N[C@@H](C)C(=O)N[C@@H](CCCCN)C(=O)N[C@@H](Cc1c[nH]c2ccccc12)C(N)=O` [[M]PTH(1-14), [Ala^1,3,12,Gln^10,Har^11,Trp^14]PTH(1-14)NH2, reference compound] (H-AVAEIQLMHQ[hArg]AKW-NH2): the EC50 in assay [1] (HKRK-B28 cells, intracellular cAMP accumulation, listed as [Ala^1,3,12,Gln^10,Har^11,Trp^14]PTH(1-14)NH2, read-out: cAMP-stimulating potency (EC50)) came out at 0.22 ± 0.08 µM; in assay [1] (HKRK-B28 cells, intracellular cAMP accumulation, read-out: cAMP-stimulating potency (EC50)), 0.2 µM. The “maximum cAMP response” value in assay [1] (HKRK-B28 cells, n=7) is listed as 225±21 picomoles of cAMP per well.

For the molecule `CC[C@H](C)[C@H](NC(=O)[C@H](CCC(=O)O)NC(=O)C(C)(C)NC(=O)[C@@H](NC(=O)C1(N)CCCC1)C(C)C)C(=O)N[C@@H](CCC(N)=O)C(=O)N[C@@H](CC(C)C)C(=O)N[C@@H](CCSC)C(=O)N[C@@H](Cc1c[nH]cn1)C(=O)N[C@@H](CCC(N)=O)C(N)=O` [[Ac5c^1,Aib^3,M]PTH(1-10), [Ac5c^1,Aib^3,Gln^10]PTH(1-10)NH2] (H-[Ac5c]V[Aib]EIQLMHQ-NH2), in assay [1] (HKRK-B28 cells, peptide at 10 μM), the “increase in cAMP levels relative to basal” value is recorded as 33 fold. The EC50 in assay [1] (HKRK-B28 cells, read-out: cAMP EC50 estimated from dose-response analysis) is around 3 µM. For the same molecule, the “cAMP agonist activity / signaling potency (in words)” value is recorded as “clear cAMP response” in assay [1] and “fall cAMP agonist, albeit with micromolar potency” in assay [1] (Aib^3, Gln^10]PTH(1-10)). The “inhibition of tracer radioligand binding” value in assay [2] is “neither peptide inhibited the binding”.

As for “[Ac3c^1,3,Gln^10,Har^11,Ala^12,Trp^14]PTH(1-14)NH2 ([Ac3c]V[Ac3c]EIQLMHQ[hArg]AKW-NH2) [[Ac3c^1,3,M]PTH(1-14)]”, in assay [1], the “cAMP agonist activity / signaling potency (in words)” value was “comparable to the parent peptide”. The “P1R binding affinity (in words)” value in assay [2] is “comparable to the parent peptide”.

Regarding `CC[C@H](C)[C@H](NC(=O)[C@H](CCC(=O)O)NC(=O)C1(NC(=O)[C@@H](NC(=O)[C@H](C)N)C(C)C)CCCC1)C(=O)N[C@@H](CCC(N)=O)C(=O)N[C@@H](CC(C)C)C(=O)N[C@@H](CCSC)C(=O)N[C@@H](Cc1c[nH]cn1)C(=O)N[C@@H](CCC(N)=O)C(=O)N[C@@H](CCCCNC(=N)N)C(=O)N[C@@H](C)C(=O)N[C@@H](CCCCN)C(=O)N[C@@H](Cc1c[nH]c2ccccc12)C(N)=O` [Ac5c^3] (H-AV[Ac5c]EIQLMHQ[hArg]AKW-NH2), in assay [2], the IC50 is around 3 µM.

In the case of “[Aib^1,3,Gln^10]PTH(1-10)NH2 ([Aib]V[Aib]EIQLMHQ-NH2; N-terminus assumed; SMILES CC[C@H](C)[C@H](NC(=O)[C@H](CCC(=O)O)NC(=O)C(C)(C)NC(=O)[C@@H](NC(=O)C(C)(C)N)C(C)C)C(=O)N[C@@H](CCC(N)=O)C(=O)N[C@@H](CC(C)C)C(=O)N[C@@H](CCSC)C(=O)N[C@@H](Cc1c[nH]cn1)C(=O)N[C@@H](CCC(N)=O)C(N)=O) [ID; NO; 35]”, the “increase in cAMP levels relative to basal” value in assay [1] (setting [3]) is on record as “two”. Also, the “activity / cAMP response in cell-based assays (in words)” value in assay [1] (P1R-transfected cells) is “measurable cAMP responses can be detected”.

Turning to “Ac5c-3: parent [M]PTH(1-14) analog in which alanine-3 was substituted with 1-aminocyclopentane-1-carboxylic acid (Ac5c)”, the “cAMP-stimulating potency higher than that of parent [M]PTH(1-14)” value in assay [1] is “< two”. The “P1R binding affinity (in words)” value in assay [2] is “little or no effect on binding affinity”.

For “Ac3c-3: parent [M]PTH(1-14) analog in which alanine-3 was substituted with 1-aminocyclopropane-1-carboxylic acid (Ac3c)”, the “cAMP-stimulating potency higher than that of parent [M]PTH(1-14)” value in assay [1] is reported as “< two”. The “binding affinity lower than that of parent [M]PTH(1-14)” value in assay [2] (relative to parent [M]PTH(1-14)) is given as “approximately 10 fold”.

Turning to “[Ac5c^1,Aib^3]PTH(1-9)NH2 ([Ac5c]V[Aib]EIQLMH-NH2; N-terminus assumed; SMILES CC[C@H](C)[C@H](NC(=O)[C@H](CCC(=O)O)NC(=O)C(C)(C)NC(=O)[C@@H](NC(=O)C1(N)CCCC1)C(C)C)C(=O)N[C@@H](CCC(N)=O)C(=O)N[C@@H](CC(C)C)C(=O)N[C@@H](CCSC)C(=O)N[C@@H](Cc1c[nH]cn1)C(N)=O) [[Ac5c^1,Aib^3,M]PTH(1-9)]”, the “increase in cAMP levels relative to basal” value in assay [1] (setting [3]) is “six”. In assay [1], the “cAMP agonist activity / signaling potency (in words)” value is listed as “clear cAMP response” and the “cAMP agonist activity at single high concentration (in words)” value is “clear agonist activity”. Besides, the “inhibition of tracer radioligand binding” value in assay [2] is recorded as “neither peptide inhibited the binding”.

Turning to `CC[C@H](C)[C@H](NC(=O)[C@H](CCC(=O)O)NC(=O)[C@H](C)NC(=O)[C@@H](NC(=O)[C@H](C)N)C(C)C)C(=O)N[C@@H](CCC(N)=O)C(=O)N[C@@H](CC(C)C)C(=O)N[C@@H](CCSC)C(=O)N[C@@H](Cc1cnc[nH]1)C(=O)N[C@@H](CCC(N)=O)C(=O)N[C@@H](CCCCN=C(N)N)C(=O)N[C@@H](C)C(=O)N[C@@H](CCCCN)C(=O)N[C@@H](Cc1c[nH]c2ccccc12)C(N)=O` [[M]PTH(1-14), [Ala^1,3,12,Gln^10,Har^11,Trp^14]PTH(1-14)NH2, reference compound] (H-AVAEIQLMHQ[hArg]AKW-NH2), the IC50 in assay [2] was ~3 µM and 0.6 µM.

With “native PTH(1-9): native PTH(1-9) (SEQ. ID. NO. 33) (SVSEIQLMH-NH2) [reference compound]”, the “cAMP agonist activity at single high concentration (in words)” value in assay [1] was “inactive”.

Broadly, the EC50 is the concentration that produces a half-maximal response. A word on the IC50: it is the concentration that gives 50% inhibition.
